# Results: US20230345940A1, “INSECTICIDE” (Western Sydney University, priority 2020, published 2023)
# Tested on: adult foraging workers of Apis mellifera
# Test: Acute toxicity to honey bees, Potter Spray Tower
# Format: in vivo
# Conditions: for Knockdown (K), no. of bees / Mortality (D), no. of bees: n = 10, extract 1.0% w/v, bifenthrin 0.05% w/v
# Protocol: The laboratory-based bioassay was performed to assess the acute toxicity of the extracts against adult foraging workers of Apis mellifera. 3 mL aliquots of P. jaceoides extract were applied at 1.0% a.i. w/v via a Potter Spray Tower, using the methodology previously described for the preparation and application of this plant extract to test insects.
# Bifenthrin (CAS No 82657-04-3) 97.0% technical (Batch 50118) was sourced from Dr. Ehrenstorfer GmbH D-86190 Augsburg, Germany. A 0.05% w/v a.i. concentration was prepared by dissolving 0.013 g bifenthrin in 1 mL acetone, sonicating for 5 min and then diluted in a 25 mL volumetric flask with 200 ppm Triton X-100 in distilled water. It was applied using a 3 mL aliquot of the 0.05% a.i via a Potter Spray Tower; this concentration was based on recommended label rate in cotton. The control comprised 5 mL acetone and water-Triton X-100 mixture only; two controls were conducted.
# Apis mellifera foraging workers for bioassay were collected from a strong, healthy hive at Western Sydney University apiary, at Richmond NSW, Australia, by blocking the hive entrance for 1 min and collecting foragers with a sweep net.
# They were immediately transferred to a mesh cage (25×33×33 cm) and maintained in the laboratory at 24° C., where they were fed ad libidum sugar:water 1:1 w/v from cotton wool placed on the mesh at the top of the cage until bioassay, which was undertaken within 1 h of bee collection. Bees for bioassay were randomly collected from the cage using a 120 mL plastic specimen tube, and anaesthetised with medical grade CO2 for 30 s, then ten bees were placed on a 90 mm diameter Petri dish lined with filter paper. The dish with the bees was placed on the Potter Spray Tower stage, and the respective treatment applied, commencing with the control and finishing with bifenthrin treatment.
# Immediately after treatment, the treated bees were gently transferred to 250 mL glass beakers, fine nylon mesh was fitted to the top with a rubber band, and the bees fed were sugar:water as above and maintained at 26° C. in very low light. Bee activity was regularly observed and recorded, at 10 min intervals until 420 min (viz. 7 HAT), then less frequently until 48 HAT. By this time, there was bee mortality in both controls, so the investigation was terminated. Data recorded were signs of intoxication, knockdown (K) and mortality (D).
smiles,measurement,setting,value
Cc1c(COC(=O)[C@@H]2[C@H](/C=C(\Cl)C(F)(F)F)C2(C)C)cccc1-c1ccccc1 (racemic) [Bifenthrin],knockdown commenced,0.05% w/v a.i.,10 MAT
same,mortality commenced,0.05% w/v a.i.,90 MAT
same,time of 50% bee knockdown,0.05% w/v a.i.,45-50 MAT
same,time of 50% mortality,0.05% w/v a.i.,240 MAT
same,"Knockdown (K), no. of bees",10 min,1K
same,"Knockdown (K), no. of bees",20 min,1K
same,"Knockdown (K), no. of bees",30 min,2K
same,"Knockdown (K), no. of bees",40 min,3K
same,"Knockdown (K), no. of bees",45 min,4K
same,"Knockdown (K), no. of bees",50 min,6K
same,"Knockdown (K), no. of bees",60 min,6K
same,"Knockdown (K), no. of bees",70 min,6K
same,"Knockdown (K), no. of bees",80 min,6K
same,"Knockdown (K), no. of bees",90 min,5
same,"Mortality (D), no. of bees",90 min,1
same,"Knockdown (K), no. of bees",100 min,"3K, 3D"
same,"Mortality (D), no. of bees",100 min,"3K, 3D"
same,"Knockdown (K), no. of bees",110 min,"4K,"
same,"Knockdown (K), no. of bees",120 min,"4K,"
same,"Knockdown (K), no. of bees",130 min,"4K,"
same,"Knockdown (K), no. of bees",140 min,3
same,"Mortality (D), no. of bees",140 min,4
same,"Knockdown (K), no. of bees",150 min,3
same,"Mortality (D), no. of bees",150 min,4
same,"Knockdown (K), no. of bees",160 min,"4K, 4D"
same,"Mortality (D), no. of bees",160 min,"4K, 4D"
same,"Knockdown (K), no. of bees",170 min,"4K, 4D"
same,"Mortality (D), no. of bees",170 min,"4K, 4D"
same,"Knockdown (K), no. of bees",180 min,"4K, 4D"
same,"Mortality (D), no. of bees",180 min,"4K, 4D"
same,"Knockdown (K), no. of bees",190 min,"4K, 4D"
same,"Mortality (D), no. of bees",190 min,"4K, 4D"
same,"Knockdown (K), no. of bees",200 min,"4K, 4D"
same,"Mortality (D), no. of bees",200 min,"4K, 4D"
same,"Knockdown (K), no. of bees",210 min,"4K, 4D"
same,"Mortality (D), no. of bees",210 min,"4K, 4D"
same,"Knockdown (K), no. of bees",220 min,5
same,"Mortality (D), no. of bees",220 min,4
same,"Knockdown (K), no. of bees",230 min,5
same,"Mortality (D), no. of bees",230 min,4
same,"Knockdown (K), no. of bees",240 min,4
same,"Mortality (D), no. of bees",240 min,5
same,"Knockdown (K), no. of bees",250 min,3
same,"Mortality (D), no. of bees",250 min,6
same,"Knockdown (K), no. of bees",260 min,3
same,"Mortality (D), no. of bees",260 min,6
same,"Knockdown (K), no. of bees",270 min,3
same,"Mortality (D), no. of bees",270 min,6
same,"Knockdown (K), no. of bees",280 min,3
same,"Mortality (D), no. of bees",280 min,6
same,"Knockdown (K), no. of bees",290 min,3
same,"Mortality (D), no. of bees",290 min,6
same,"Knockdown (K), no. of bees",300 min,3
same,"Mortality (D), no. of bees",300 min,6
same,"Knockdown (K), no. of bees",310 min,3
same,"Mortality (D), no. of bees",310 min,6
same,"Knockdown (K), no. of bees",320 min,3
same,"Mortality (D), no. of bees",320 min,6
same,"Knockdown (K), no. of bees",330 min,1
same,"Mortality (D), no. of bees",330 min,8
same,"Knockdown (K), no. of bees",340 min,1
same,"Mortality (D), no. of bees",340 min,8
same,"Knockdown (K), no. of bees",350 min,1
same,"Mortality (D), no. of bees",350 min,8
same,"Knockdown (K), no. of bees",360 min,1
same,"Mortality (D), no. of bees",360 min,8
same,"Knockdown (K), no. of bees",370 min,1
same,"Mortality (D), no. of bees",370 min,8
same,"Knockdown (K), no. of bees",380 min,1
same,"Mortality (D), no. of bees",380 min,8
same,"Knockdown (K), no. of bees",390 min,0
same,"Mortality (D), no. of bees",390 min,9
same,"Knockdown (K), no. of bees",400 min,0
same,"Mortality (D), no. of bees",400 min,9
same,"Knockdown (K), no. of bees",410 min,0
same,"Mortality (D), no. of bees",410 min,9
same,"Knockdown (K), no. of bees",420 min,0
same,"Mortality (D), no. of bees",420 min,9
same,"Knockdown (K), no. of bees",450 min,0
same,"Mortality (D), no. of bees",450 min,9
same,"Mortality (D), no. of bees",480 min,10D
same,mortality,"by 480 MAT, 0.05% w/v a.i.",100%
